Values of other authors as cited in paper PMC4876928 (Clinical cancer research : an official journal of the …, 2016).

System: malignant pleural mesothelioma
Conditions: MPM previously treated with chemotherapy, second-line; cited from earlier work

| SMILES | response rate [%] |
| --- | --- |
| Nc1ccn([C@@H]2O[C@H](CO)[C@@H](O)C2(F)F)c(=O)n1 [gemcitabine] | 2 |
| CCC1=C[C@@H]2CN(C1)Cc1c([nH]c3ccccc13)[C@@](C(=O)OC)(c1cc3c(cc1OC)N(C)[C@H]1[C@@](O)(C(=O)OC)[C@H](OC(C)=O)[C@]4(CC)C=CCN5CC[C@]31[C@@H]54)C2 [vinorelbine] | 2 |
